The text below walks through data of US20260242415A1 (priority 2022, published 2026).

In assay [1] the test system is spike protein of the SARS-CoV-2 virion. Format: binding.
Assay [2] concerns the target full length SARS-CoV-2 Spike (Severe acute respiratory syndrome coronavirus 2, UniProt P0DTC2). In kind it is binding. As to conditions: 10 µM.
For assay [3], the system named is VSV pseudotyped with spike protein from SARS-CoV-2.
The test system of assay [4] is VSV pseudotyped with spike protein from SARS-CoV-1.
Assay [5] has as its system VSV pseudotyped with spike protein from WIV-16.

pIC50: −log10 of the molar value. Positions of bridges follow the written chain, without caps; N, C: chain ends. Non-standard residues stand in square brackets, D forms with d. Chains are numbered I, II in the order given. AEEA = NCCOCCOCC(=O)O Bounds are passed on as bounds.

With NARILQRWFPELAHL [SARS2D1], the “enrichment in final round (% of total sequences)” value in assay [1] is listed as 11.88%. The “ΔTm, melting point change” value in assay [2] was 0 °C.

Take IILYRTYFQPFRWEF [SARS1spikeL2]: the “enrichment in final round (% of total sequences)” value in assay [1] turned out to be 5.58%.

As for IVLHDGLRSATVLWI [SARS2R3L2], the “enrichment in final round (% of total sequences)” value in assay [1] is 0.77%. In assay [2], the “ΔTm, melting point change” value was 1.5 °C.

Take TSQICQELDALGDWI [SARS1spikeD2]: in assay [1], the “enrichment in final round (% of total sequences)” value was determined as 7.71%.

Turning to CFFWYENYYTAITVT [SARS1spikeL3], in assay [1], the “enrichment in final round (% of total sequences)” value was 2.90%.

For the compound VIWHPDRWTSVVLQI [SARS2L2], in assay [1], the “enrichment in final round (% of total sequences)” value is given as 17.02%. The “ΔTm, melting point change” value in assay [2] worked out at 2 °C.

For SVVFSADGRHYYWDS [SARS2L3], the “enrichment in final round (% of total sequences)” value in assay [1] came to 1.25%. Besides, the “ΔTm, melting point change” value in assay [2] worked out at 0 °C.

Take “I: {CH2CO}-YRRPREQIIIGSLWVFCG[AEEA][AEEA][AEEA][AEEA][AEEA][AEEA]KG-NH2 / II: {CH2CO}-YRRPREQIIIGSLWVFCG[AEEA][AEEA][AEEA][AEEA][AEEA][AEEA] (amide I:25-II:C; thioether I:N-I:17, II:N-II:17) [Dimer 3]”: in the assay on SARS-CoV-2 pseudoviruses, the pIC50 (usually −log10 of the IC50, conventionally taken in molar units) is 7.05.

Take `CC[C@H](C)[C@@H]1NC(=O)[C@H](CCC(N)=O)NC(=O)[C@H](CCC(=O)O)NC(=O)[C@H](CCCNC(=N)N)NC(=O)[C@@H]2CCCN2C(=O)[C@H](CCCNC(=N)N)NC(=O)[C@H](CCCNC(=N)N)NC(=O)[C@H](Cc2ccc(O)cc2)NC(=O)CSC[C@@H](C(=O)NCC(N)=O)NC(=O)[C@H](Cc2ccccc2)NC(=O)[C@H](C(C)C)NC(=O)[C@H](Cc2c[nH]c3ccccc23)NC(=O)[C@H](CC(C)C)NC(=O)[C@H](CO)NC(=O)CNC(=O)[C@H]([C@@H](C)CC)NC(=O)[C@H]([C@@H](C)CC)NC1=O` [Compound S1b3inL1]: the pIC50 with SARS2-S pseudotyped VSV is 6.09; with whole SARS-CoV-2 virus it was 5.28; in assay [3] it was 5.77; in assay [4] it was 5.66; in assay [5] it was 5.15; with SARS-CoV-2 pseudoviruses, 5.82.

As to `CC[C@H](C)[C@@H]1NC(=O)[C@H](C(C)C)NC(=O)[C@H](CC(C)C)NC(=O)[C@H](CCCCN)NC(=O)[C@H](CCCNC(=N)N)NC(=O)[C@@H]2CCCN2C(=O)[C@H](C(C)C)NC(=O)[C@H](CCCNC(=N)N)NC(=O)[C@H](Cc2ccc(O)cc2)NC(=O)CSC[C@@H](C(=O)NCC(N)=O)NC(=O)[C@H](Cc2ccccc2)NC(=O)[C@H](CC(N)=O)NC(=O)[C@H](Cc2c[nH]c3ccccc23)NC(=O)[C@H](C(C)C)NC(=O)[C@H](CO)NC(=O)CNC(=O)[C@H]([C@@H](C)CC)NC1=O` [Compound S1b3inL4], the “enrichment in final round (% of total sequences)” value in assay [1] came to 1.50%. Besides, the “ΔTm, melting point change” value in assay [2] worked out at 0 °C. The same compound gave a negative logarithm of the IC50 (pIC50) in the assay on whole SARS-CoV-2 virus of 4.94.

Turning to SIENYLKKLGYVLLW [SARS2D4], the “enrichment in final round (% of total sequences)” value in assay [1] is 5.53%. The “ΔTm, melting point change” value in assay [2] is −0.5 °C.

In the case of `CC[C@H](C)[C@@H]1NC(=O)[C@H](Cc2ccc(O)cc2)NC(=O)CSC[C@@H](C(=O)NCC(N)=O)NC(=O)[C@H](C(C)C)NC(=O)[C@H](Cc2ccc(O)cc2)NC(=O)[C@H](CCC(N)=O)NC(=O)[C@H](C(C)C)NC(=O)[C@H](Cc2c[nH]cn2)NC(=O)[C@H]([C@@H](C)O)NC(=O)[C@H](CO)NC(=O)[C@H](Cc2ccc(O)cc2)NC(=O)[C@H](CC(C)C)NC(=O)[C@H](CO)NC(=O)[C@H](CC(=O)O)NC(=O)[C@H](Cc2c[nH]cn2)NC(=O)[C@H](Cc2c[nH]c3ccccc23)NC(=O)[C@H](C(C)C)NC1=O` [SARS2L1], the negative logarithm of the IC50 (pIC50) with SARS2-S pseudotyped VSV was 6.39; in the assay with whole SARS-CoV-2 virus, less than 4.00.

Consider “I: {CH2CO}-YRRPREQIIIGSLWVFCG[AEEA][AEEA][AEEA][AEEA][AEEA][AEEA][AEEA][AEEA]KG-NH2 / II: {CH2CO}-YRRPREQIIIGSLWVFCG[AEEA][AEEA][AEEA][AEEA][AEEA][AEEA][AEEA][AEEA] (amide I:27-II:C; thioether I:N-I:17, II:N-II:17) [Dimer 4]”, for which the negative logarithm of the IC50 (pIC50) in the assay with SARS-CoV-2 pseudoviruses was 8.00.

Turning to LVFHDNVYTVTVVHV [SARS2R3L1], the “enrichment in final round (% of total sequences)” value in assay [1] turned out to be 0.71%. Besides, the “ΔTm, melting point change” value in assay [2] came out at 1 °C.

As for LIWYQSYYQTEVVWF [SARS1spikeL1], the “enrichment in final round (% of total sequences)” value in assay [1] is given as 8.32%.

For “I: {CH2CO}-YRRPREQIIIGSLWVFCG[AEEA][AEEA]KG-NH2 / II: {CH2CO}-YRRPREQIIIGSLWVFCG[AEEA][AEEA] (amide I:21-II:C; thioether I:N-I:17, II:N-II:17) [Dimer 2]”, the pIC50 with SARS-CoV-2 pseudoviruses is 7.30.

Consider “I: {CH2CO}-YRRPREQIIIGSLWVFCG[AEEA][AEEA][AEEA][AEEA]KG-NH2 / II: {CH2CO}-YRRPREQIIIGSLWVFCG[AEEA][AEEA][AEEA][AEEA] (amide I:23-II:C; thioether I:N-I:17, II:N-II:17) [Dimer 1]”, for which, in the assay on SARS-CoV-2 pseudoviruses, the pIC50 was 7.52.
